The record followed here is patent US20250230155A1 (Vanderbilt University, priority 2021, published 2025).

A value given as a limit tells only on which side of the number the result lay.

For this test, the target named is T1, human mAChR M4 (Homo sapiens, UniProt P08173).
T1 construct: expressed in transfected cells
T1 sequence (P08173 1-479): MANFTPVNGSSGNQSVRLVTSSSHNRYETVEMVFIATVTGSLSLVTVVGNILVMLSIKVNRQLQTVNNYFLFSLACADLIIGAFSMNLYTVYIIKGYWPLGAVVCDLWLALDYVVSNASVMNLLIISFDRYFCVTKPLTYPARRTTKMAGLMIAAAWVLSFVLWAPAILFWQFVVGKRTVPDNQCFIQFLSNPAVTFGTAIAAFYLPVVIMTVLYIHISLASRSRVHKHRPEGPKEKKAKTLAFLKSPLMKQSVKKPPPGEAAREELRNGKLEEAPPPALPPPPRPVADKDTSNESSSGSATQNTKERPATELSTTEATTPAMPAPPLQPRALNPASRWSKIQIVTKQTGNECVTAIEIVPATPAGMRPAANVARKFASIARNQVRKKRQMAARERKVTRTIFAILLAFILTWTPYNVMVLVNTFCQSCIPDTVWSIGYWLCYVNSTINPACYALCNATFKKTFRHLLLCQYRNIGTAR
The test is described as follows: mAChR M4 cell-based functional assay (calcium mobilization, CHO-K1 hM4-Gqi5 cells). The following applies: for Emax at 30 µM: CHO-K1, % ACh maximum at 30 μM, human M4; for EC50: positive allosteric modulator activity, increase in the EC20 acetylcholine response, CHO-K1 hM4-Gqi5 cells, read-out: Human M4 EC50. In outline: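 Fluorescent calcium read-out (Fluo-4 AM, FDSS, 1 Hz) in hM4-Gqi5 CHO-K1 cells, 11-point 1:3 compound series. Agonism scored on compound addition, PAM activity as increase of the 144 s EC20 acetylcholine response, antagonism as decrease of the 230 s EC80 response; four-parameter logistic fits give EC50 and Emax.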

Regarding `Cc1noc(C)c1-c1cnc2c(c1)CN(c1nnc(C#N)c(C)c1C)CC2` [Example 297, 6-(3-(3,5-dimethylisoxazol-4-yl)-7,8-dihydro-1,6-naphthyridin-6(5H)-yl)-4,5-dimethylpyridazine-3-carbonitrile], the Emax at 30 µM was 83% and the EC50 was determined as 267 nM.

`Cc1cc(C(=O)NCc2ccno2)cnc1N1CCc2ncccc2C1` [compound 123, 6-(7,8-dihydro-5H-1,6-naphthyridin-6-yl)-N-(isoxazol-5-ylmethyl)-5-methyl-pyridine-3-carboxamide]: the maximal response (Emax) at 30 µM is 82% and the concentration giving a half-maximal response (EC50) is at least 10000 nM.

Consider `Cc1c(C#N)nnc(N2CCc3ncc(N4CC(C)Cn5nccc54)cc3C2)c1C` (stereo not drawn) [Example 374, 4,5-dimethyl-6-(3-(6-methyl-6,7-dihydropyrazolo[1,5-a]pyrimidin-4(5H)-yl)-7,8-dihydro-1,6-naphthyridin-6(5H)-yl)pyridazine-3-carbonitrile], for which the Emax at 30 µM was 96% and the half-maximal effective concentration (EC50) was determined as 248 nM.

Consider `CCOc1nc(N2CCc3ncc(C(F)(F)F)cc3C2)c(C)cc1C#N` [Example 373, 2-ethoxy-5-methyl-6-(3-(trifluoromethyl)-7,8-dihydro-1,6-naphthyridin-6(5H)-yl)nicotinonitrile], for which the maximal effect (Emax) at 30 µM was 64% and the concentration giving a half-maximal response (EC50) worked out at 1740 nM.

As to `Cc1nn(C)cc1-c1cnc2c(c1)CN(c1nc(NCC(C)(C)O)nc(C)c1C)CC2` [compound 274, 1-((4-(3-(1,3-dimethyl-1H-pyrazol-4-yl)-7,8-dihydro-1,6-naphthyridin-6(5H)-yl)-5,6-dimethylpyrimidin-2-yl)amino)-2-methylpropan-2-ol], the maximal response (Emax) at 30 µM came out at 87% and the half-maximal effective concentration (EC50) amounted to 735 nM.

Consider `Cc1c(Cl)nc(C(F)(F)F)nc1N1CCc2ncc(C3CC3)cc2C1` [compound 242, 6-(6-chloro-5-methyl-2-(trifluoromethyl)pyrimidin-4-yl)-3-cyclopropyl-5,6,7,8-tetrahydro-1,6-naphthyridine], for which the Emax at 30 µM is 83% and the EC50 was 1870 nM.

For `Cc1c(C#N)nnc(N2CCc3ncc(Nc4c(F)cccc4Cl)cc3C2)c1C` [Example 33], the Emax at 30 µM was 66% and the EC50 came to 197 nM.

For `Cc1cc(C(=O)Nc2ccncc2)cnc1N1CCc2ncccc2C1` [compound 121, 6-(7,8-dihydro-5H-1,6-naphthyridin-6-yl)-5-methyl-N-(4-pyridyl)pyridine-3-carboxamide], the maximal effect (Emax) at 30 µM worked out at 70% and the half-maximal effective concentration (EC50) stood at 544 nM.

Take `Cc1ccccc1Nc1cnc2c(c1)CN(c1nnc(C#N)c(C)c1C)CC2` [compound 42, 4,5-dimethyl-6-[3-(2-methylanilino)-7,8-dihydro-5H-1,6-naphthyridin-6-yl]pyridazine-3-carbonitrile]: the maximal effect (Emax) at 30 µM came to 80% and the EC50 stood at 483 nM.

Regarding `Cc1nc(Cl)c(C)c(N2Cc3cc(C(F)(F)F)cnc3C(C)C2)n1` (stereo not drawn) [compound 256, 6-(6-chloro-2,5-dimethylpyrimidin-4-yl)-8-methyl-3-(trifluoromethyl)-5,6,7,8-tetrahydro-1,6-naphthyridine], the Emax at 30 µM worked out at 85% and the concentration for a half-maximal effect (EC50) worked out at 663 nM.

In the case of `Cc1cc(C(=O)NCc2cccc3cccnc23)cnc1N1CCc2ncccc2C1` [compound 156, 6-(7,8-dihydro-5H-1,6-naphthyridin-6-yl)-5-methyl-N-(8-quinolylmethyl)pyridine-3-carboxamide], the maximum response (Emax) at 30 µM came out at 84% and the concentration giving a half-maximal response (EC50) worked out at 1150 nM.

For `Cc1cc(C#N)nnc1N1CCc2ncc(N3CCC(C)n4nccc43)cc2C1` (stereo not drawn) [Example 383, 5-methyl-6-(3-(7-methyl-6,7-dihydropyrazolo[1,5-a]pyrimidin-4(5H)-yl)-7,8-dihydro-1,6-naphthyridin-6(5H)-yl)pyridazine-3-carbonitrile], the Emax at 30 µM came out at 97% and the EC50 worked out at 171 nM.

Regarding `Cc1nc(C)c(C)c(N2CCc3ncc(-c4ccc(N5CCCC5)nc4)cc3C2)n1` [compound 231, 3-(6-(pyrrolidin-1-yl)pyridin-3-yl)-6-(2,5,6-trimethylpyrimidin-4-yl)-5,6,7,8-tetrahydro-1,6-naphthyridine], the Emax at 30 µM is 63% and the concentration for a half-maximal effect (EC50) stood at 668 nM.

As for `Cc1cc(C#N)nnc1N1CCc2ncc(Oc3cc(F)ccc3F)cc2C1` [Example 357, 6-(3-(2,5-difluorophenoxy)-7,8-dihydro-1,6-naphthyridin-6(5H)-yl)-5-methylpyridazine-3-carbonitrile], the Emax at 30 µM was determined as 84% and the 50% effective concentration (EC50) was determined as 127 nM.

Take `Cc1cc(C#N)cnc1N1CCc2ncc(Oc3ccccc3F)cc2C1` [compound 180, 6-[3-(2-fluorophenoxy)-7,8-dihydro-5H-1,6-naphthyridin-6-yl]-5-methyl-pyridine-3-carbonitrile]: the maximal effect (Emax) at 30 µM came out at 94% and the 50% effective concentration (EC50) came to 96.9 nM.

On to `[2H]C1([2H])Cc2ncc(Nc3ccncc3C)cc2C([2H])([2H])N1c1nnc(C#N)cc1C` [Example 607, 5-methyl-6-(3-((3-methylpyridin-4-yl)amino)-7,8-dihydro-1,6-naphthyridin-6(5H)-yl-5,5,7,7-d4)pyridazine-3-carbonitrile], for which the maximum response (Emax) at 30 µM came to 70% and the half-maximal effective concentration (EC50) came out at 906 nM.

Regarding `Cc1cc(C#N)nnc1N1CCc2ncc(C(F)F)cc2C1` [Example 309, 6-(3-(difluoromethyl)-7,8-dihydro-1,6-naphthyridin-6(5H)-yl)-5-methylpyridazine-3-carbonitrile], the EC50 was determined as 770 nM. For the same compound, under “CHO-K1”, the maximal effect (Emax) was 96%.

Regarding `Cc1cc(C#N)cnc1N1CCc2ncc(Oc3ccc(F)cc3F)cc2C1` [Example 310, 6-(3-(2,4-difluorophenoxy)-7,8-dihydro-1,6-naphthyridin-6(5H)-yl)-5-methylnicotinonitrile], the Emax at 30 µM worked out at 90% and the concentration giving a half-maximal response (EC50) came out at 600 nM.

For the compound `Cc1cc(C#N)nnc1N1CCc2ncc(N3CCOC(C)(C)C3)cc2C1` [Example 398, 6-(3-(2,2-dimethylmorpholino)-7,8-dihydro-1,6-naphthyridin-6(5H)-yl)-5-methylpyridazine-3-carbonitrile], the maximum response (Emax) at 30 µM is 74% and the 50% effective concentration (EC50) amounted to 102 nM.

With `Cc1cc(C#N)nnc1N1CCc2ncc(N3CCCn4nc(C(C)(C)C)cc43)cc2C1` [Example 418, 6-(3-(2-(tert-butyl)-6,7-dihydropyrazolo[1,5-a]pyrimidin-4(5H)-yl)-7,8-dihydro-1,6-naphthyridin-6(5H)-yl)-5-methylpyridazine-3-carbonitrile], the maximum response (Emax) at 30 µM stood at 80% and the EC50 stood at 516 nM.

With `Cc1cnccc1CNC(=O)c1cc(C)c(N2CCc3ncc(N4CCCn5nccc54)cc3C2)nn1` [Example 491, 6-(3-(6,7-dihydropyrazolo[1,5-a]pyrimidin-4(5H)-yl)-7,8-dihydro-1,6-naphthyridin-6(5H)-yl)-5-methyl-N-((3-methylpyridin-4-yl)methyl)pyridazine-3-carboxamide], the maximum response (Emax) at 30 µM amounted to 91% and the half-maximal effective concentration (EC50) worked out at 15 nM.

As for `Cc1cc(C#N)nnc1N1CCc2ncc(-c3ccc(C4CC4)nc3)cc2C1` [Example 321, 6-(3-(6-cyclopropylpyridin-3-yl)-7,8-dihydro-1,6-naphthyridin-6(5H)-yl)-5-methylpyridazine-3-carbonitrile], the Emax at 30 µM was 73% and the EC50 came out at 356 nM.

In the case of `COc1cc(-c2cnc3c(c2)CN(c2nnc(C#N)c(C)c2C)CC3)ccn1` [compound 76, 6-[3-(2-methoxy-4-pyridyl)-7,8-dihydro-5H-1,6-naphthyridin-6-yl]-4,5-dimethyl-pyridazine-3-carbonitrile], the Emax at 30 µM stood at 76% and the half-maximal effective concentration (EC50) came to 1490 nM.

Take `Cc1cc(C#N)nnc1N1CCc2ncc(C3CCC3)cc2C1` [Example 402, 6-(3-cyclobutyl-7,8-dihydro-1,6-naphthyridin-6(5H)-yl)-5-methylpyridazine-3-carbonitrile]: the Emax at 30 µM is 91% and the EC50 worked out at 150 nM.

As for `[2H]C([2H])(NC(=O)c1cc(C)c(N2CCc3ncc(N4CCCn5nccc54)cc3C2)nn1)c1ccncc1` [Example 509, 6-(3-(6,7-dihydropyrazolo[1,5-a]pyrimidin-4(5H)-yl)-7,8-dihydro-1,6-naphthyridin-6(5H)-yl)-5-methyl-N-(pyridin-4-ylmethyl-d2)pyridazine-3-carboxamide], the maximal effect (Emax) at 30 µM came out at 104% and the half-maximal effective concentration (EC50) amounted to 12 nM.

Turning to `COc1ccc(Oc2cnc3c(c2)CN(c2ncc(C#N)cc2C)CC3)cn1` [compound 182, 6-[3-[(6-methoxy-3-pyridyl)oxy]-7,8-dihydro-5H-1,6-naphthyridin-6-yl]-5-methyl-pyridine-3-carbonitrile], the Emax at 30 µM was 75% and the EC50 stood at 439 nM.

As to `Cc1nc(C)c(C)c(N2CCc3ncc(Oc4cccc(F)c4F)cc3C2)n1` [compound 261, 3-(2,3-difluorophenoxy)-6-(2,5,6-trimethylpyrimidin-4-yl)-5,6,7,8-tetrahydro-1,6-naphthyridine], the Emax at 30 µM was determined as 72% and the EC50 worked out at 358 nM.
